Laboratory results reported in paper PMC7435711, “Synthesis and Pharmacological Effects of Diosgenin–Betulinic Acid Conjugates” (Molecules, 2020).
Where two headings read alike, the source gives them in different places.

Columns and labels:
[1] = tested on: human colon carcinoma (HCT 116) cells; assay: Cytotoxicity screening test, HCT 116; conditions: HCT-116, 72 h, read-out: Cytotoxicity IC50, HCT 116
[2] = tested on: human breast adenocarcinoma (MCF7) cells; assay: Cytotoxicity screening test, MCF7; conditions: MCF7, 72 h, read-out: Cytotoxicity IC50, MCF7
Description: (§1) Doxorubicin was used as a positive control.
(§2) The screening cell lines, T-lymphoblastic leukemia (CEM), cervical carcinoma (HeLa), breast carcinoma (MCF7), and human foreskin fibroblasts (BJ) were obtained from the American Type Culture Collection (Manassas, VA, USA). Cells were cultured in DMEM (Dulbecco’s Modified Eagle Medium, Sigma Aldrich, Darmstadt, Germany). Media used were supplemented with 10% fetal bovine serum, 2 mM L-glutamine, and 1% penicillin-streptomycin (all from Sigma Aldrich, Darmstadt, Germany). The cell lines were maintained under standard cell culture conditions at 37 °C and 5% CO2 in humid environment. Cells were subcultured twice or three times a week using the standard trypsinization procedure.

[3] = tested on: human cervical cancer (HeLa) cells; assay: Cytotoxicity screening test, HeLa; conditions: 72 h, read-out: Cytotoxicity IC50, HeLa
Description: as §1, §2

in vitro = conditions: human
Description: as §1, §2

[4] = tested on: human T-lymphoblastic leukemia (CEM) cells; assay: Cytotoxicity screening test, CEM; conditions: CCRF-CEM, 72 h, read-out: Cytotoxicity IC50, CEM
Description: as §1, §2

[5] = tested on: CEM, MCF7, HeLa, HCT 116 cancer cell lines and BJ fibroblasts
Description: as §1, §2

[6] = tested on: CEM, MCF7, HeLa, HCT 116 cancer cell lines and BJ fibroblasts; assay: Cytotoxicity screening tests, summary statements over the cell line panel; conditions: for IC50: Homo sapiens, 72 h, read-out: IC50 against all tested cell lines
Description: as §1, §2

[7] = Cytotoxicity screening test, BJ reference cells; conditions: human, BJ normal foreskin fibroblasts
Description: as §1, §2

Row | Compound | IC50 [1] [µM] | IC50 [2] [µM] | IC50 [3] [µM] | IC50 at 72 h (in vitro) [µM] | IC50 [4] [µM] | Cytotoxicity (in words) [5] | IC50 [6] [µM] | IC50 at 72 h [7] [µM] | Cytotoxicity (in words) ([6]; summary over the tested cell lines)
1 | C=C(C)[C@@H]1CC[C@]2(C(=O)OCc3ccccc3)CC[C@]3(C)[C@H](CC[C@@H]4[C@@]5(C)CC[C@H](OCc6cn(CCCCC(=O)O)nn6)C(C)(C)[C@@H]5CC[C@]43C)[C@@H]12 [Compound 5, 5-[4-({[(3β)-28-(Benzyloxy)-28-oxolup-20(29)-en-3-yl]oxy}-methyl)-1H-1,2,3-triazol-1-yl]pentanoic acid] | 19.4 ± 2.1 | 49.5 ± 0.7 | 20.3 ± 4.4 | > 50 | 15.8 ± 0.6 | – | – | – | –
2 | C=C(C)[C@@H]1CC[C@]2(C(=O)O)CC[C@]3(C)[C@H](CC[C@@H]4[C@@]5(C)CC[C@H](OCc6cn(CCCCC(=O)O[C@H]7CC[C@@]8(C)C(=CC[C@H]9[C@@H]%10C[C@@H]%11O[C@]%12(CC[C@@H](C)CO%12)[C@@H](C)[C@@H]%11[C@@]%10(C)CC[C@@H]98)C7)nn6)C(C)(C)[C@@H]5CC[C@]43C)[C@@H]12 [Compound 8, (3β)-3-[(1-{5-Oxo-5-[(3β,25R)-spirost-5-en-3-yloxy]pentyl}-1H-1,2,3-triazol-4-yl]methoxy}lup-20(29)-en-28-oic Acid] | > 50 | > 50 | > 50 | > 50 | > 50 | – | – | – | –
3 | C#CCO[C@H]1CC[C@]2(C)[C@H]3CC[C@@H]4[C@H]5[C@H](C(=C)C)CC[C@]5(C(=O)OCc5ccccc5)CC[C@@]4(C)[C@]3(C)CC[C@H]2C1(C)C [Compound 4, Benzyl (3β)-3-(prop-2-yn-1-yloxy)lup-20(29)-en-28-oate] | > 50 | > 50 | > 50 | > 50 | > 50 | no cytotoxicity | > 50 | – | –
4 | COc1cccc2c1C(=O)c1c(O)c3c(c(O)c1C2=O)C[C@@](O)(C(=O)CO)C[C@@H]3O[C@H]1C[C@H](N)[C@H](O)[C@H](C)O1 [Doxorubicin, reference compound] | 0.524 ± 0.177 | – | – | – | – | – | – | 0.278 ± 0.036 | –
5 | C=C(C)[C@@H]1CC[C@]2(C(=O)O)CC[C@]3(C)[C@H](CC[C@@H]4[C@@]5(C)CC[C@H](O)C(C)(C)[C@@H]5CC[C@]43C)[C@@H]12 [Compound 2, 3β-hydroxylup-20(29)-en-28-oic acid, reference compound] | > 50 | > 50 | > 50 | – | > 50 | – | > 50 | > 50 | no cytotoxicity
6 | C[C@@H]1CC[C@@]2(OC1)O[C@H]1C[C@H]3[C@@H]4CC=C5C[C@@H](O)CC[C@]5(C)[C@H]4CC[C@]3(C)[C@H]1[C@@H]2C [Compound 1, (3β,25R)-spirost-5-en-3-ol, reference compound] | > 50 | > 50 | > 50 | – | > 50 | – | > 50 | > 50 | –
7 | C=C(C)[C@@H]1CC[C@]2(C(=O)OCc3ccccc3)CC[C@]3(C)[C@H](CC[C@@H]4[C@@]5(C)CC[C@H](O)C(C)(C)[C@@H]5CC[C@]43C)[C@@H]12 [Compound 3, Benzyl (3β)-3-hydroxylup-20(29)-en-28-oate] | > 50 | > 50 | > 50 | > 50 | > 50 | no cytotoxicity | > 50 | – | –
8 | C=C(C)[C@@H]1CC[C@]2(C(=O)OCc3ccccc3)CC[C@]3(C)[C@H](CC[C@@H]4[C@@]5(C)CC[C@H](OCc6cn(CCCCC(=O)O[C@H]7CC[C@@]8(C)C(=CC[C@H]9[C@@H]%10C[C@@H]%11O[C@]%12(CC[C@@H](C)CO%12)[C@@H](C)[C@@H]%11[C@@]%10(C)CC[C@@H]98)C7)nn6)C(C)(C)[C@@H]5CC[C@]43C)[C@@H]12 [Compound 7, Benzyl (3β)-3-[(1-{5-oxo-5-[(3β,25R)-spirost-5-en-3-yloxy]pentyl}-1H-1,2,3-triazol-4-yl)methoxy]lup-20(29)-en-28-oate] | > 50 | > 50 | > 50 | 46.2 ± 2.8 | 6.5 ± 1.1 | medium to weak multifarious cytotoxicity | – | – | –
9 | C=C(C)[C@@H]1CC[C@]2(C(=O)O)CC[C@]3(C)[C@H](CC[C@@H]4[C@@]5(C)CC[C@H](OCc6cn(CCCCC(=O)O)nn6)C(C)(C)[C@@H]5CC[C@]43C)[C@@H]12 [Compound 6, (3β)-3-{[1-(4-Carboxybutyl)-1H-1,2,3-triazol-4-yl]methoxy}lup-20(29)-en-28-oic Acid] | > 50 | > 50 | > 50 | > 50 | > 50 | inactive | – | – | –
